Measured values: the NIST ThermoML archive (doi:10.1021/je060271a)
± gives the expanded uncertainty stated by the source.

Conditions: 323.15 K, Liquid, Vibrating tube method

CCCCCCCC(=O)OCC(COC(=O)CCCCCCC)(COC(=O)CCCCCCC)COC(=O)CCCCCCC [pentaerythritol tetraoctanoate]
Conditions	mass density [kg/m3]
7680.3 kPa	945.8 ± 1.2
7700.7 kPa	945.8 ± 1.2
7720.9 kPa	945.7 ± 1.2
7748.8 kPa	945.9 ± 1.2
7769.4 kPa	945.7 ± 1.2
7790.4 kPa	945.9 ± 1.2
7811.3 kPa	946 ± 1.2
7832.2 kPa	945.9 ± 1.2
7857.7 kPa	945.9 ± 1.2
7878.8 kPa	945.8 ± 1.2
7900.5 kPa	945.9 ± 1.2
7922.1 kPa	946 ± 1.2
7947.7 kPa	946 ± 1.2
7968.9 kPa	945.8 ± 1.2
7990.6 kPa	946 ± 1.2
8017 kPa	946 ± 1.2
8039.8 kPa	946 ± 1.2
8061.6 kPa	946.2 ± 1.2
8084.3 kPa	946.1 ± 1.2
8107.1 kPa	946.1 ± 1.2
8134 kPa	946.1 ± 1.2
8156.6 kPa	946 ± 1.2
8179.4 kPa	946.1 ± 1.2
8206.5 kPa	946 ± 1.2
8229.4 kPa	946.2 ± 1.2
8252.6 kPa	946.2 ± 1.2
8275.8 kPa	946.2 ± 1.2
8303.6 kPa	946.2 ± 1.2
8327.1 kPa	946.2 ± 1.2
8355.7 kPa	946.2 ± 1.2
8379.5 kPa	946.3 ± 1.2
8404.2 kPa	946.3 ± 1.2
8428.3 kPa	946.3 ± 1.2
8452.5 kPa	946.3 ± 1.2
8482 kPa	946.4 ± 1.2
8506.8 kPa	946.2 ± 1.2
8531.5 kPa	946.4 ± 1.2
8560.6 kPa	946.4 ± 1.2
8585.3 kPa	946.5 ± 1.2
8610.8 kPa	946.4 ± 1.2
8640.7 kPa	946.4 ± 1.2
8666 kPa	946.4 ± 1.2
8691.5 kPa	946.4 ± 1.2
8722.7 kPa	946.4 ± 1.2
8748.4 kPa	946.5 ± 1.2
8774.8 kPa	946.4 ± 1.2
8806.4 kPa	946.5 ± 1.2
8832.8 kPa	946.4 ± 1.2
8859.7 kPa	946.6 ± 1.2
8886 kPa	946.5 ± 1.2
8918.8 kPa	946.5 ± 1.2
8945.9 kPa	946.6 ± 1.2
8972.8 kPa	946.7 ± 1.2
9006 kPa	946.7 ± 1.2
9034.1 kPa	946.6 ± 1.2
9062.8 kPa	946.7 ± 1.2
9092.9 kPa	946.7 ± 1.2
9121.3 kPa	946.8 ± 1.2
9155.1 kPa	946.7 ± 1.2
9183.5 kPa	946.9 ± 1.2
9212.7 kPa	946.8 ± 1.2
9247.8 kPa	946.8 ± 1.2
9276.8 kPa	946.9 ± 1.2
9311.6 kPa	946.9 ± 1.2
9341.2 kPa	946.9 ± 1.2
9371.1 kPa	946.9 ± 1.2
9401 kPa	946.9 ± 1.2
9437.9 kPa	946.9 ± 1.2
9469.8 kPa	947 ± 1.2
9503.2 kPa	946.9 ± 1.2
9534 kPa	947.1 ± 1.2
9570.9 kPa	946.9 ± 1.2
9602.4 kPa	947 ± 1.2
9633.9 kPa	947 ± 1.2
9665.6 kPa	947.2 ± 1.2
9704.2 kPa	947.1 ± 1.2
9736 kPa	947.1 ± 1.2
9774.4 kPa	947.2 ± 1.2
9806.9 kPa	947.2 ± 1.2
9834 kPa	947.1 ± 1.2
9860.5 kPa	947.3 ± 1.2
9901 kPa	947.3 ± 1.2
9949.2 kPa	947.4 ± 1.2
9984 kPa	947.3 ± 1.2
10026 kPa	947.2 ± 1.2
10059 kPa	947.3 ± 1.2
10090 kPa	947.3 ± 1.2
10128 kPa	947.3 ± 1.2
10160 kPa	947.4 ± 1.2
10192 kPa	947.5 ± 1.2
10231 kPa	947.6 ± 1.2
10264 kPa	947.5 ± 1.2
10297 kPa	947.6 ± 1.2
10337 kPa	947.5 ± 1.2
10372 kPa	947.6 ± 1.2
10405 kPa	947.5 ± 1.2
10435 kPa	947.6 ± 1.2
10467 kPa	947.6 ± 1.2
10494 kPa	947.6 ± 1.2
10520 kPa	947.7 ± 1.2
10553 kPa	947.7 ± 1.2
10580 kPa	947.7 ± 1.2
10608 kPa	947.6 ± 1.2
10643 kPa	947.8 ± 1.2
10672 kPa	947.8 ± 1.2
10695 kPa	947.7 ± 1.2
10719 kPa	947.8 ± 1.2
10739 kPa	947.8 ± 1.2
10759 kPa	947.6 ± 1.2
10779 kPa	947.8 ± 1.2
10802 kPa	947.8 ± 1.2
10822 kPa	947.8 ± 1.2
10847 kPa	947.8 ± 1.2
10867 kPa	947.8 ± 1.2
10887 kPa	948 ± 1.2
10911 kPa	947.9 ± 1.2
10932 kPa	947.8 ± 1.2
10948 kPa	947.9 ± 1.2
10977 kPa	947.9 ± 1.2
10997 kPa	948 ± 1.2
11019 kPa	948.1 ± 1.2
11040 kPa	948.1 ± 1.2
11065 kPa	948 ± 1.2
11086 kPa	948 ± 1.2
11111 kPa	948 ± 1.2
11132 kPa	948.1 ± 1.2
11153 kPa	948.1 ± 1.2
11175 kPa	948.1 ± 1.2
11200 kPa	948.1 ± 1.2
11222 kPa	948.1 ± 1.2
11248 kPa	948.1 ± 1.2
11270 kPa	948.1 ± 1.2
11292 kPa	948.1 ± 1.2
11319 kPa	948.1 ± 1.2
11341 kPa	948.1 ± 1.2
11362 kPa	948.1 ± 1.2
11384 kPa	948.3 ± 1.2
11411 kPa	948.3 ± 1.2
11433 kPa	948.2 ± 1.2
11460 kPa	948.2 ± 1.2
11483 kPa	948.3 ± 1.2
11506 kPa	948.3 ± 1.2
11533 kPa	948.3 ± 1.2
11555 kPa	948.4 ± 1.2
11579 kPa	948.2 ± 1.2
11607 kPa	948.3 ± 1.2
11626 kPa	948.3 ± 1.2
11654 kPa	948.4 ± 1.2
11678 kPa	948.2 ± 1.2
11701 kPa	948.4 ± 1.2
11725 kPa	948.5 ± 1.2
11744 kPa	948.5 ± 1.2
11768 kPa	948.4 ± 1.2
11792 kPa	948.5 ± 1.2
11831 kPa	948.4 ± 1.2
11855 kPa	948.5 ± 1.2
11880 kPa	948.5 ± 1.2
11909 kPa	948.5 ± 1.2
11935 kPa	948.6 ± 1.2
11961 kPa	948.6 ± 1.2
11986 kPa	948.6 ± 1.2
12010 kPa	948.7 ± 1.2
12041 kPa	948.6 ± 1.2
12065 kPa	948.7 ± 1.2
12095 kPa	948.6 ± 1.2
12120 kPa	948.8 ± 1.2
12146 kPa	948.6 ± 1.2
12176 kPa	948.6 ± 1.2
12202 kPa	948.7 ± 1.2
12228 kPa	948.6 ± 1.2
12255 kPa	948.7 ± 1.2
12286 kPa	948.8 ± 1.2
12313 kPa	948.8 ± 1.2
12339 kPa	948.9 ± 1.2
12456 kPa	948.9 ± 1.2
12482 kPa	948.9 ± 1.2
12510 kPa	948.9 ± 1.2
12537 kPa	948.9 ± 1.2
12570 kPa	949 ± 1.2
12598 kPa	948.9 ± 1.2
12626 kPa	949 ± 1.2
12660 kPa	949 ± 1.2
12688 kPa	948.9 ± 1.2
12716 kPa	949 ± 1.2
12744 kPa	949 ± 1.2
12777 kPa	949 ± 1.2
12805 kPa	949.1 ± 1.2
12839 kPa	949 ± 1.2
12868 kPa	949.1 ± 1.2
12897 kPa	949.2 ± 1.2
12932 kPa	949.2 ± 1.2
12961 kPa	949.2 ± 1.2
12990 kPa	949.1 ± 1.2
13026 kPa	949.2 ± 1.2
13056 kPa	949.3 ± 1.2
13080 kPa	949.2 ± 1.2
13104 kPa	949.2 ± 1.2
13134 kPa	949.3 ± 1.2
13170 kPa	949.2 ± 1.2
13212 kPa	949.4 ± 1.2
13248 kPa	949.4 ± 1.2
13279 kPa	949.3 ± 1.2
13310 kPa	949.4 ± 1.2
13347 kPa	949.3 ± 1.2
13378 kPa	949.4 ± 1.2
13409 kPa	949.6 ± 1.2
13447 kPa	949.6 ± 1.2
13479 kPa	949.6 ± 1.2
13511 kPa	949.5 ± 1.2
13543 kPa	949.5 ± 1.2
13581 kPa	949.7 ± 1.2
13614 kPa	949.7 ± 1.2
13652 kPa	949.6 ± 1.2
13685 kPa	949.7 ± 1.2
13717 kPa	949.6 ± 1.2
13756 kPa	949.7 ± 1.2
13790 kPa	949.6 ± 1.2
13823 kPa	949.7 ± 1.2
13863 kPa	949.7 ± 1.2
13897 kPa	949.9 ± 1.2
13932 kPa	949.7 ± 1.2
13965 kPa	949.8 ± 1.2
14007 kPa	949.9 ± 1.2
14041 kPa	949.7 ± 1.2
14076 kPa	949.9 ± 1.2
14118 kPa	950 ± 1.2
14152 kPa	949.9 ± 1.2
14187 kPa	950 ± 1.2
14230 kPa	949.9 ± 1.2
14266 kPa	950 ± 1.2
14301 kPa	950.1 ± 1.2
14345 kPa	950.1 ± 1.2
14376 kPa	950.2 ± 1.2
14414 kPa	950.2 ± 1.2
14452 kPa	950.1 ± 1.2
14505 kPa	950.1 ± 1.2
14544 kPa	950.2 ± 1.2
14573 kPa	950.2 ± 1.2
14617 kPa	950.1 ± 1.2
14647 kPa	950.2 ± 1.2
14671 kPa	950.2 ± 1.2
14707 kPa	950.5 ± 1.2
14738 kPa	950.3 ± 1.2
14780 kPa	950.3 ± 1.2
14812 kPa	950.5 ± 1.2
14846 kPa	950.5 ± 1.2
14877 kPa	950.3 ± 1.2
14909 kPa	950.4 ± 1.2
14947 kPa	950.5 ± 1.2
14979 kPa	950.4 ± 1.2
15012 kPa	950.5 ± 1.2
15052 kPa	950.5 ± 1.2
15085 kPa	950.5 ± 1.2
15114 kPa	950.5 ± 1.2
15143 kPa	950.5 ± 1.2
15167 kPa	950.6 ± 1.2
15191 kPa	950.6 ± 1.2
15220 kPa	950.7 ± 1.2
15246 kPa	950.5 ± 1.2
15270 kPa	950.6 ± 1.2
15299 kPa	950.6 ± 1.2
15324 kPa	950.7 ± 1.2
15350 kPa	950.7 ± 1.2
15374 kPa	950.8 ± 1.2
15404 kPa	950.8 ± 1.2
15430 kPa	950.7 ± 1.2
15454 kPa	950.8 ± 1.2
15485 kPa	950.7 ± 1.2
15510 kPa	950.9 ± 1.2
15541 kPa	950.8 ± 1.2
15567 kPa	950.8 ± 1.2
15594 kPa	950.8 ± 1.2
15619 kPa	950.8 ± 1.2
15650 kPa	950.8 ± 1.2
15677 kPa	950.9 ± 1.2
15702 kPa	950.9 ± 1.2
15734 kPa	950.9 ± 1.2
15761 kPa	950.9 ± 1.2
15787 kPa	950.9 ± 1.2
15818 kPa	951 ± 1.2
15845 kPa	951.2 ± 1.2
15872 kPa	951 ± 1.2
15903 kPa	951.1 ± 1.2
15931 kPa	951.1 ± 1.2
15954 kPa	951 ± 1.2
15980 kPa	951.1 ± 1.2
16008 kPa	951.1 ± 1.2
16046 kPa	951.2 ± 1.2
16073 kPa	951.1 ± 1.2
16106 kPa	951.3 ± 1.2
16134 kPa	951.1 ± 1.2
16161 kPa	951.3 ± 1.2
16194 kPa	951.1 ± 1.2
16222 kPa	951.3 ± 1.2
16245 kPa	951.2 ± 1.2
16273 kPa	951.4 ± 1.2
